The test system of one data set is SiHa. In words: MTT toxicity assay, SiHa. The format is cell-based. As to conditions: 24 hour. In general terms: Tetrazolium dyes change colour on reduction, which living cells bring about.
The target of the next data set is MT1-MMP (Homo sapiens, UniProt P50281). Put plainly: Inhibition of MT1-MMP activity. The format is biochemical.
In data set [1] the test system is laminin 5 processing in squamous cell carcinoma cell line SCC-25. In words: Laminin 5 processing in SCC-25 cells, western blot. The format is cell-based, human. The conditions noted are these: 1, 5, 10 μM; 48 hours. On the procedure:
(§1) This is shown by western blot analysis. […] (FIG. 13: lane 1, control; lane 2, 1 μM; lane 3, 5 μM; lane 4, 10 μM.)
In general terms: A western blot detects proteins with antibodies after separation by electrophoresis.

Data set [2] deals with laminin 5 processing in normal human keratinocytes. Put plainly: Laminin 5 processing in keratinocyte cultures, western blot. The format is cell-based. On the procedure:
Each of the inhibitors was added to freshly plated cultures of normal human keratinocytes. After 16 hours, laminin 5 was extracted from cultures and analyzed by western blot using a polyclonal antibody to laminin 5.

The target of a further data set is T1, MMP-1 (Homo sapiens, UniProt P03956).
T1 sequence (P03956 100-469): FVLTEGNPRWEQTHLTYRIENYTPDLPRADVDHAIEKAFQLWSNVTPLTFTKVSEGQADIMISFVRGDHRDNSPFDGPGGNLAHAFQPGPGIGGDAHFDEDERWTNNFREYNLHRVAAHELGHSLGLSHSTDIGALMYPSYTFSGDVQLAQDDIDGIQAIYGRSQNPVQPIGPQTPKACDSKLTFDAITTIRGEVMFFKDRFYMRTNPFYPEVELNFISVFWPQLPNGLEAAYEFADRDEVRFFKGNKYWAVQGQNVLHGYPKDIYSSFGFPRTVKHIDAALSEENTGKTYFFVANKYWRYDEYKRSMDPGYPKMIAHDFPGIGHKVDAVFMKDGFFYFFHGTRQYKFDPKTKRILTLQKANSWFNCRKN
Put plainly: Inhibition of MMP-1 activity. The format is biochemical.

The test system of data set [3] is squamous cell carcinoma cell line SCC-15. In words: Scratch assay, SCC-15. The conditions noted are these: 1, 5, 10 μM; 48 hours. The format is cell-based.
Another data set has as its system SCC-15. Put plainly: MTT toxicity assay, SCC-15. The conditions noted are these: 24 hour. It counts as cell-based.
Data set [4] concerns laminin 5 processing in squamous cell carcinoma cell line SCC-15. Put plainly: Laminin 5 processing in SCC-15 cells, western blot. It counts as cell-based. The conditions noted are these: 1, 5, 10 μM; 48 hours. On the procedure:
as §1

The target of a further data set is T2, MMP-2 (Homo sapiens, UniProt P08253).
T2 sequence (P08253 110-660): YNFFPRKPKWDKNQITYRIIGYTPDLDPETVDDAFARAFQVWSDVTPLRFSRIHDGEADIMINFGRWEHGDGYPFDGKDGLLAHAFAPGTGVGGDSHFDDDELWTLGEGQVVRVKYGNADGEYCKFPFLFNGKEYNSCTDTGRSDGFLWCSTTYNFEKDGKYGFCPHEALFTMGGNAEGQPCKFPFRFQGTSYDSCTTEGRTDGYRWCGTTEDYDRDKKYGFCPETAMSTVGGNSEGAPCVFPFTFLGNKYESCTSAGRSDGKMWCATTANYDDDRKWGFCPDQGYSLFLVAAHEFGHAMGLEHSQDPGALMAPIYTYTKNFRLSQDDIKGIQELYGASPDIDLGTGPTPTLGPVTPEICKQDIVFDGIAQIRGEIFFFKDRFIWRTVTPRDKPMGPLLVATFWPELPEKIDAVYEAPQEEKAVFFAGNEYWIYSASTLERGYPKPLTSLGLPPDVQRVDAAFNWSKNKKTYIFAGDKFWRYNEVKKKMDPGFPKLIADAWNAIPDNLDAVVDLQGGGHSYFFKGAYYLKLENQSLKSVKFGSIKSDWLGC
In words: Inhibition of MMP-2 activity. It counts as biochemical.

The subject of the next data set is normal keratinocytes. Put plainly: Keratinocyte detachment by trypsin. The format is cell-based. The conditions noted are these: cultured 24 hours with compound; 0.05% trypsin. An excerpt: The mode of attachment of keratinocytes to processed and unprocessed laminin 5 was examined by two methods. […] (FIG. 20.)
The test system of data set [5] is squamous carcinoma cell line SCC-25. Put plainly: Scratch assay, SCC-25. The format is cell-based, human. As to the method:
(§2) To approximate in vivo epidermal cell migration, during which epidermal cells move as sheets, scratch assays were utilized. Normal human keratinocytes were plated to confluence in the presence of either of the inhibitors (10 μM) or DMSO, and the cells allowed to attach for 6 hours. A 2 mm scratch was produced in the culture, marked, and the migration of the cells studied for the following 24 to 48 hours. […] (FIG. 7B.) When scratched plates were subsequently washed after 24 hours of incubation with the inhibitors, and incubated for an additional 24 hours in the absence of inhibitors, normal migration equivalent to that of the control conditions was noted.
In addition, squamous carcinoma cell line SCC-25 (ATCC Number CRL-1628) was examined by the described scratch assay using the inhibitors. […] Washing out of the inhibitors for an additional 48 hour time period restored normal SCC migration.
(§3) A dose-dependent study of Compound 2 was performed on keratinocyte cultures. In these assays, a scratch was placed in a confluent layer of cells, and the migration of the cells into the scratched area was assessed after 48 hours. In the absence of inhibitor, normal immortalized keratinocytes (NIK) migrated into the scratch area.

The test system of a further data set is SiHa cells. Put plainly: Matrigel invasion chamber, SiHa. The format is cell-based. As to conditions: 24 hours; cell line unable to produce laminin 5. As to the method:
(§4) The assay is a standard in vitro measure of tumor cell invasion. Tumor cells are plated atop a layer of fabricated basement membrane and allowed to migrate over the course of 24 hours towards conditioned 3T3 medium, which contains a chemo-attractant, located in a lower chamber. […] (FIG. 25.)

Another data set has as its system SCC-25. Put plainly: MTT toxicity assay, SCC-25. It counts as cell-based, human. As to conditions: 24 hour.
The next data set relates to SCC-15 cells. Put plainly: Matrigel invasion chamber, SCC-15. It counts as cell-based. As to conditions: 5 μM; 24 hours. As to the method:
as §4

A further data set concerns squamous carcinoma cells. In words: Migration of squamous carcinoma cells (general statement). It counts as cell-based.
In a further data set the target is MMP-9 (Homo sapiens, UniProt P14780). Put plainly: Inhibition of MMP-9 activity. The format is biochemical.
A further data set relates to keratinocytes. In words: Keratinocyte migration, Boyden chambers. The format is cell-based. As to the method:
Compounds 1 and 2 were used to examine the functional effects of processing by BMP-1 related proteins on keratinocyte migration. […] Keratinocytes were analyzed for migration in Boyden chambers in the presence of increasing amounts of the inhibitors. […] (Koivunen et al. (1999) Nature Biotechnology 17:768-774.)

For the next data set, the system named is cultured cells. Put plainly: Toxicity to cultured cells. The format is cell-based.
The test system of another data set is SCC-25 cells. In words: Matrigel invasion chamber, SCC-25. The format is cell-based, human. As to conditions: 5 μM; 24 hours. On the procedure: as §4
The subject of data set [6] is laminin 5 processing in normal immortalized keratinocytes (NIK). Put plainly: Laminin 5 processing in normal immortalized keratinocytes, western blot. The format is cell-based. As to conditions: 1, 5, 8 μM; 48 hours.
Another data set addresses mTll-1 (Homo sapiens, UniProt O43897). In words: Cleavage of unprocessed laminin 5 matrix by mTll-1, western blot. It counts as biochemical. The conditions noted are these: 10 μM. On the procedure: (§5) The processing of laminin 5 by various BMP-1 related proteins was examined. […] The cells were then removed from the culture dish by 20 mM ammonium sulfate, the dish was washed, and the matrix was incubated in increasing amounts of each BMP-1 related protein. After proteolytic digestion, the matrix was extracted and examined by western blot analysis. […] BMP-1 and mTLL-2 cleaved the γ2 chain of laminin 5.

In data set [7] the test system is normal immortalized keratinocytes (NIK). In words: Scratch assay, normal immortalized keratinocytes. It counts as cell-based. As to the method:
as §3

For data set [8], the system named is normal human keratinocytes. In words: Scratch assay, normal human keratinocytes. The format is cell-based. The conditions noted are these: 10 μM; 24 hours. As to the method: as §2
The target in the next data set is mTll-2 (Homo sapiens, UniProt Q9Y6L7). Put plainly: Cleavage of unprocessed laminin 5 matrix by mTll-2, western blot. It counts as biochemical. As to conditions: 10 μM. As to the method: as §5
Data set [9] deals with unprocessed human laminin 5 (α3 chain of 200 kDa, β3 chain of 140 kDa, γ2 chain of 155 kDa) (UniProt Q16787).

“Also recorded” adds a separate entry of the source.

mTll-2, sequence (Q9Y6L7 150-1015): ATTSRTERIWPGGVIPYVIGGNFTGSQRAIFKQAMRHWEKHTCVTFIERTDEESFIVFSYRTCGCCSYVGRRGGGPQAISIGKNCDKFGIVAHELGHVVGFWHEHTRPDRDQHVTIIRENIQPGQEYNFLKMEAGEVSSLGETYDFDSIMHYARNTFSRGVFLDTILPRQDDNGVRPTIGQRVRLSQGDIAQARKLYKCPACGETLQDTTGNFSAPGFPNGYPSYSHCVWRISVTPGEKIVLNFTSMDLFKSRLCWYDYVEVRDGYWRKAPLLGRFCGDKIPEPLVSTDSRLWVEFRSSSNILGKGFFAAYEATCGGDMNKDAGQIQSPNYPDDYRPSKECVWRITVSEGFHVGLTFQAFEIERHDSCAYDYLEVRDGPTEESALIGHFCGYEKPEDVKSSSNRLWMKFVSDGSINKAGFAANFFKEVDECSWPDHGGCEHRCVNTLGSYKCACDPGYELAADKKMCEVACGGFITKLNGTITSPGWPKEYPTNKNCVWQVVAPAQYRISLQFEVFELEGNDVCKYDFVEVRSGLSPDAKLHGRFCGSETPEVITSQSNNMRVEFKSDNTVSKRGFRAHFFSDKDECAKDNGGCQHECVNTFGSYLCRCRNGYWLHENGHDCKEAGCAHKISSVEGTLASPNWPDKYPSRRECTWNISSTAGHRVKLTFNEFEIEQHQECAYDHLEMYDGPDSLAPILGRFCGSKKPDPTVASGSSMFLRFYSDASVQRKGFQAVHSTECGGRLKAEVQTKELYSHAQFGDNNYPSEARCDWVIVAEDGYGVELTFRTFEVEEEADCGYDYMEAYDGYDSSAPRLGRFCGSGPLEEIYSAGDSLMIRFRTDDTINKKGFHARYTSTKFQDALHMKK
unprocessed human laminin 5 (α3 chain of 200 kDa, β3 chain of 140 kDa, γ2 chain of 155 kDa), sequence (Q16787 whole entry, looked up): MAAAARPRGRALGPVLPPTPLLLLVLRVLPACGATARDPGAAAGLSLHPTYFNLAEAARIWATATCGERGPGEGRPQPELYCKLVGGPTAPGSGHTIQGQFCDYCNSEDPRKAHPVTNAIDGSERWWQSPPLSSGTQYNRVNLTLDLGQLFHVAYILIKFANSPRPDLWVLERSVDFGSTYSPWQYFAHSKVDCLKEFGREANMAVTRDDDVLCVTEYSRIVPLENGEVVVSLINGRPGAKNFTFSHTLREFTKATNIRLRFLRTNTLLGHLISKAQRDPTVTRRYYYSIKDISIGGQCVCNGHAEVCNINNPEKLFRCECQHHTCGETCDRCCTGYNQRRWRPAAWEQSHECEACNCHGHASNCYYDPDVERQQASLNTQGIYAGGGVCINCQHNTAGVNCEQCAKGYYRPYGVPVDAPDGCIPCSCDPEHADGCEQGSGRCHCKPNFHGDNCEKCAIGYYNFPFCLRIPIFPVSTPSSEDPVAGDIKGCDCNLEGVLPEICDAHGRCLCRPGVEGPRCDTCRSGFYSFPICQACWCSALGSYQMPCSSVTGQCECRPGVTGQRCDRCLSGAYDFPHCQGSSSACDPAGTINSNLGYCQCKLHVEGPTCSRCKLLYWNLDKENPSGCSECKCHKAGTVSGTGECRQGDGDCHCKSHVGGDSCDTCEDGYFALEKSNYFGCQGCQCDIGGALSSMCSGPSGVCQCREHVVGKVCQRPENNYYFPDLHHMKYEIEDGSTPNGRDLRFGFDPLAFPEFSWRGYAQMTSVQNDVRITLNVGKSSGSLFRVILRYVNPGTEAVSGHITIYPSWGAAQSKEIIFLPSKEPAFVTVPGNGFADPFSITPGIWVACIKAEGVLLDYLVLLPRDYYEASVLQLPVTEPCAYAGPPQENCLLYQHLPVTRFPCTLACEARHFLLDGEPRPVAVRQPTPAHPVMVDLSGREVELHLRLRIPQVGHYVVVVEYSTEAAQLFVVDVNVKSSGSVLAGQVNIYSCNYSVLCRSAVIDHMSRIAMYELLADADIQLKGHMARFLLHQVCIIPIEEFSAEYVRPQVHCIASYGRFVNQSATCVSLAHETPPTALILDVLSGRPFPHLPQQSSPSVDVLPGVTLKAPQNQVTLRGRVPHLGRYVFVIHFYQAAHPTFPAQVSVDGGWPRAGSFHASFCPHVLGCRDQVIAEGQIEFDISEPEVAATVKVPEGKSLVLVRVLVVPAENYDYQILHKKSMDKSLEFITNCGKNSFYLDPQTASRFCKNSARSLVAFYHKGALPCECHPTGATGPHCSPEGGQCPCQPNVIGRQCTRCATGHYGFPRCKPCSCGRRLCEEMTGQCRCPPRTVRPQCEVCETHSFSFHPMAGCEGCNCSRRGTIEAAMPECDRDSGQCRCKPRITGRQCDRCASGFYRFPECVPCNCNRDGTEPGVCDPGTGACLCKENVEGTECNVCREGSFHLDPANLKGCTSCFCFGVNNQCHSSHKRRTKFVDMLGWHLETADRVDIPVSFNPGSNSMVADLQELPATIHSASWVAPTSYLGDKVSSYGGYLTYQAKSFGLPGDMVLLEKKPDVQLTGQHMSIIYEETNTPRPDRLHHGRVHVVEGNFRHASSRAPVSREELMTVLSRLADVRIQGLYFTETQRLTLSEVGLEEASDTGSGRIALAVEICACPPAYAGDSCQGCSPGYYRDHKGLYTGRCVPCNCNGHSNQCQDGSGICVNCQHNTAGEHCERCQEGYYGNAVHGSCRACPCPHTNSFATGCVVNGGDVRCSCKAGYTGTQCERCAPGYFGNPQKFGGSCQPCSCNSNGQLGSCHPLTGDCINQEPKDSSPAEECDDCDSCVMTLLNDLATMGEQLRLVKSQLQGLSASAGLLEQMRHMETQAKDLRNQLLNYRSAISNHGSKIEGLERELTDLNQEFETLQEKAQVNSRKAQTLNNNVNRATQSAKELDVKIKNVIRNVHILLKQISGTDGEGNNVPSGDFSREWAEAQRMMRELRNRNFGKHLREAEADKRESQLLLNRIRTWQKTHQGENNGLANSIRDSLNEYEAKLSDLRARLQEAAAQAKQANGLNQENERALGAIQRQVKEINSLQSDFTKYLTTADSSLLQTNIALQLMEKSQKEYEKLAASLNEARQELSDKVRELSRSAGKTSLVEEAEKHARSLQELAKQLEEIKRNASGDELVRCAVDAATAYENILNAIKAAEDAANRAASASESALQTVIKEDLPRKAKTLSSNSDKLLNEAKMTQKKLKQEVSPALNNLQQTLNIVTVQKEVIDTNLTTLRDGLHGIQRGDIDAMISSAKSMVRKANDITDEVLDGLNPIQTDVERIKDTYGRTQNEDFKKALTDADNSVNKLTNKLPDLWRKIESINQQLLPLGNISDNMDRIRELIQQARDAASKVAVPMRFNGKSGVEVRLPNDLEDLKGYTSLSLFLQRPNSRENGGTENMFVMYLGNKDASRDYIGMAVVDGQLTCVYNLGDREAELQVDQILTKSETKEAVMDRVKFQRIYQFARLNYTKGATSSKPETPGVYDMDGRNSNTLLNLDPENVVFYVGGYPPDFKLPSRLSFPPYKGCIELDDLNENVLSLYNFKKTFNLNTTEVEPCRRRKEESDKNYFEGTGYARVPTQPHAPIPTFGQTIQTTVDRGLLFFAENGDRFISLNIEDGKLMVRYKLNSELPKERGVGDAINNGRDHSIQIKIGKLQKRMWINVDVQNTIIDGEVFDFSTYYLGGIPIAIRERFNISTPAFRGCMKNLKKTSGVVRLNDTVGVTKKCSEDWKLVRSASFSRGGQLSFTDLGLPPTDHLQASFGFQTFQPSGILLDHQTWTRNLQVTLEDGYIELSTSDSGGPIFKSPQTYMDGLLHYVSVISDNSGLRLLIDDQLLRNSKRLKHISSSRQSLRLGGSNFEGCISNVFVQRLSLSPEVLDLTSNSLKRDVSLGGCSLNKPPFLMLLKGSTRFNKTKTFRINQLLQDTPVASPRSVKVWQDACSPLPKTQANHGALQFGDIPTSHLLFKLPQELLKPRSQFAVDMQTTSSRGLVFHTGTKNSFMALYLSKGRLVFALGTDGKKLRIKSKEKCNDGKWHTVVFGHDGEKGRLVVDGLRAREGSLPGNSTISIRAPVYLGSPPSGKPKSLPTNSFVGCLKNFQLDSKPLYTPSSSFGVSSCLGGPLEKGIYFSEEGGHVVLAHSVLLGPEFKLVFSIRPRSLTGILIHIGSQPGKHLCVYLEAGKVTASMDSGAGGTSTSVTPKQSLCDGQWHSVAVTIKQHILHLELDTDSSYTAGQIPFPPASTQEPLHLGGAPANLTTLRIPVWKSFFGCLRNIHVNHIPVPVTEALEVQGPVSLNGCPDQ
MMP-9, sequence (P14780 94-707, species assumed): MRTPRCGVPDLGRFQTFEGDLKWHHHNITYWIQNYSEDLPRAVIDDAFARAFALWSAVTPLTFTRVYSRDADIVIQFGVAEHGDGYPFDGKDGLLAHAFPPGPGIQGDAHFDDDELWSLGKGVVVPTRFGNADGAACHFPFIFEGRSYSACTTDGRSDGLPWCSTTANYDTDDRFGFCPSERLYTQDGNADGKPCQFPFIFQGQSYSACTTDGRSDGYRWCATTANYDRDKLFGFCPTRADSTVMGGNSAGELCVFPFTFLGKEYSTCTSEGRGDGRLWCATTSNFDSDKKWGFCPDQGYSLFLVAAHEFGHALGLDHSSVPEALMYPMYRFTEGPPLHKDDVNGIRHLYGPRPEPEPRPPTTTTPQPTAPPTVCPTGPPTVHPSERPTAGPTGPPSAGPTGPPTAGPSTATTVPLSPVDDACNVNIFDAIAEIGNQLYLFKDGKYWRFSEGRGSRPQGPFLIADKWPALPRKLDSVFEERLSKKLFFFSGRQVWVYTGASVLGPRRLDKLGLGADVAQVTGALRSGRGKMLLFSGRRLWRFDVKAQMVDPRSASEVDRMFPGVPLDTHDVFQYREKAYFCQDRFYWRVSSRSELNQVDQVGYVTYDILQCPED
Protocol for KLASV cells: To allow for attachment to the tissue culture dish, KLASV cells were plated in tissue culture wells previously coated with type I collagen.

Consider `COc1ccc(CCN(CCC(=O)NO)S(=O)(=O)c2ccc(NC(=O)NCc3ccccc3)cc2)cc1` [Compound 2], for which the “MTT toxicity, SiHa” value in the data set with SiHa is on record as “little or no toxicity”. Besides, the “inhibition of activity of MT1-MMP” value on MT1-MMP was “no inhibition”. For the same molecule, the “processing of laminin 5 in SCC-25, dose dependence” value in [1] was “dose-dependent effect”. Moreover, in data set [2] (10 μM), the “processing of laminin 5 deposited by cultured keratinocytes” value was “prevented processing of laminin 5”. In addition, in [2] (16 hours, western blot), the “level of expression of laminin 5” value is recorded as “did not significantly change”; the “processing of the α3 and γ2 chains of laminin 5” value is reported as “completely inhibited”. In addition, the “laminin 5 α3 chain and γ2 chain processing, dose dependence” value in data set [2] (dose-dependent manner) was “inhibited laminin 5 α3 chain and γ2 chain processing”. The “inhibition of activity of MMP-1” value on MMP-1 is given as “no inhibition”. Moreover, in [3], the “migration of SCC-15 into the scratch area, dose dependence” value is given as “dose-dependent effect”. The “MTT toxicity, SCC-15” value in the data set on SCC-15 was “little or no toxicity”. Moreover, in [4], the “processing of laminin 5 in SCC-15, dose dependence” value is “dose-dependent effect”. In addition, the “inhibition of activity of MMP-2” value on MMP-2 is given as “no inhibition”. Further, the “resistance of treated cells to trypsin detachment” value in the data set with normal keratinocytes is recorded as “more resistant to trypsin treatment”. The “SCC-25 migration response compared with keratinocytes” value in [5] (10 μM) is recorded as “identical response”. In data set [5] (10 μM, 48 hr), the “inhibition of SCC cell migration on type I collagen coated versus non-coated dishes” value was “equally effective at inhibiting cell migration”. Besides, the “SCC-25 migration into the scratch” value in data set [5] (10 μM, up to 48 hours) is “effective at preventing SCC-25 migration”. Further, in data set [5] (1, 5, 10 μM, 48 hours), the “migration of SCC-25 into the scratch area, dose dependence” value is “dose-dependent effect”. Besides, the “invasion of SiHa cells” value in the data set on SiHa cells is listed as “not able to inhibit the invasion”. Further, the “MTT toxicity, SCC-25” value in the data set with SCC-25 is listed as “little or no toxicity”. In addition, the “invasion of SCC-15 cells” value in the data set with SCC-15 cells was “able to inhibit the invasion”. Moreover, the “inhibition of migration of squamous carcinoma cells” value in the data set on squamous carcinoma cells is “potently inhibit”. Also, at MMP-9, the “inhibition of activity of MMP-9” value is “no inhibition”. The “migration of KLASV cells” value with KLASV cells (type I collagen coated dishes, 10 μM, 48 hr) is reported as “not inhibited”. In the data set with KLASV cells (type I collagen coated wells, 24 hours, compared to non-treated control), the “migration of KLASV cells into the scratch” value is on record as “significant migration into the scratch”. For the same molecule, in the data set on keratinocytes, the “inhibition of keratinocyte migration” value is on record as “potently inhibit”. The “keratinocyte migration in transwells or over a scratch” value in the data set on keratinocytes (10 μM) is listed as “almost complete lack of migration”. Further, the “inhibition of keratinocyte migration, dose dependence” value in the data set on keratinocytes (Boyden chamber and scratch assays) was “inhibition of KC migration in a dose-dependent manner”. In the data set on keratinocytes (Boyden chambers), the “dose required to achieve nearly complete inhibition of migration” value worked out at 10 µM. For the same molecule, the “toxicity to cultured cells at 100 times inhibitory levels” value in the data set with cultured cells (100 times the concentration which inhibited BMP-1 activity) is on record as “nontoxic”. Also, the “toxic effect on cells” value in the data set with cultured cells (cell culture) is reported as “nontoxic; also recorded: non-toxic; also recorded: no toxic effect on cells”. Also, the “invasion of SCC-25 cells” value in the data set on SCC-25 cells is on record as “able to inhibit the invasion”. Moreover, the “processing of laminin 5 in NIK, dose dependence” value in data set [6] is reported as “dose-dependent effect”. Further, the “cleavage of laminin 5 α3 chain by mTLL-1” value on mTll-1 is recorded as “inhibited cleavage of laminin 5 α3 chain”. In addition, in [7] (10 μM, 48 hr), the “inhibition of keratinocyte migration on type I collagen coated versus non-coated dishes” value is on record as “equally effective at inhibiting cell migration”. In [7] (1, 5, 8 μM, 48 hours), the “migration of NIK into the scratch area, dose dependence” value is reported as “dose-dependent inhibition of migration”. Moreover, in data set [8], the “migration of keratinocytes into the scratch” value is “almost a complete lack of migration”. On mTll-2, the “cleavage of laminin 5 α3 chain by mTLL-2” value was “inhibited cleavage of laminin 5 α3 chain” and the “cleavage of laminin 5 γ2 chain by mTLL-2” value is “inhibited cleavage of laminin 5 γ2 chain”.

For the molecule MMP-2, in the data set on type IV collagen, the “digestion of type IV collagen (positive control, data not shown)” value is “MMP-2 completely digested an equimolar quantity of type IV collagen under the same conditions”; the “processing of collagen IV” value was “it readily processed collagen XVII and collagen IV”. The “processing of collagen XVII” value with collagen XVII was “it readily processed collagen XVII and collagen IV”. Further, in data set [9], the “cleavage of human laminin 5” value was “it failed to cleave human laminin 5, even at six times the enzyme-to-substrate ratio used for BMP-1 cleavage studies” and the “digestion of laminin 5 (100 ng/ml MMP-2, 37° C., 16 hours, western blot)” value is listed as “no digestion of laminin 5 was seen with 100 ng/ml MMP-2 (over three times the amount of BMP-1 on a molar basis)”.

For the origin of these results see patent publication US20020076736A1, “Methods of affecting laminin 5 processing” (priority 2000, published 2002).
